Experimental data published in US20230096766A1, “AMINO ACID HAVING FUNCTIONAL GROUP CAPABLE OF INTERMOLECULAR HYDROGEN BONDING, PEPTIDE COMPOUND CONTAINING SAME AND METHOD FOR PRODUCTION THEREOF” (Chugai Seiyaku Kabushiki Kaisha, priority 2018, published 2023).
*1 amine or outer side, *2 acyl side, *3 side chain or, on linkers, in order; H or OH if unused. Where a SMILES comes first, the peptide text is derived from it. Bridges are numbered along the chain shown (N, C = ends). [ ]: non-standard residue; d: D form. The star is where a group is joined. Phe(3-CONHMe,4-OMe) = CNC(=O)c1cc(C[C@H](N)C(=O)O)ccc1OC; Phe(4-COOH) = N[C@@H](Cc1ccc(C(=O)O)cc1)C(=O)O; X12 = O=C([C@H](CCCC(O)C(F)(F)F)N[*:1])[*:2]; Tyr(3-F) = N[C@@H](Cc1ccc(O)c(F)c1)C(=O)O; NMehPhe = CN[C@@H](CCc1ccccc1)C(=O)O; NMeF = CN[C@@H](Cc1ccccc1)C(=O)O; NMeGABA = CN(CCCC(=O)[*:2])[*:1]; NMeI = CC[C@H](C)[C@H](NC)C(=O)O; Butyl(3-Me,3-OH) = CC(C)(O)CC*; CH2CH(OH)CF3 = OC(C*)C(F)(F)F; NMeL = CN[C@@H](CC(C)C)C(=O)O; NMeV = CN[C@H](C(=O)O)C(C)C; NMeAbu = CC[C@H](NC)C(=O)O; NMeA = CN[C@@H](C)C(=O)O; Piperidide = C1CCN(*)CC1; dNMeA = CN[C@H](C)C(=O)O; NBuGly = CCCCNCC(=O)O; N(OH)Me = CN(O)*; Sar = CNCC(=O)O; tBu = CC(C)(C)*

assay: in vitro; details: human, Caco-2, Caco-2 (cm/sec)

Row | Compound | Papp [×10⁻⁶ cm/s]
1 | CC(C)C[C@@H]1NC(=O)[C@H](CCc2ccccc2)N(C)C(=O)[C@@H](C(C)C)NC(=O)C[C@@H](C(=O)N2CCCCC2)NC(=O)[C@H](CC(C)C)N(C)C(=O)[C@H](Cc2ccccc2)N(C)C(=O)[C@H](COCCC(C)(C)O)NC(=O)[C@H](CC(C)C)N(C)C(=O)CN(C)C(=O)[C@H]([C@@H](C)O)NC(=O)[C@H](CC(C)C)N(C)C1=O [AP60] ([dV][NMehPhe]L[NMeL]T[Sar][NMeL]S(Butyl(3-Me,3-OH))[NMeF][NMeL]D-Piperidide; lactam N-11) | 1
2 | CC(C)C[C@@H]1NC(=O)[C@H](Cc2ccccc2)N(C)C(=O)[C@H](C)NC(=O)C[C@@H](C(=O)N2CCCCC2)NC(=O)[C@H](Cc2ccccc2)N(C)C(=O)[C@H](Cc2ccccc2)N(C)C(=O)[C@H](COC(C)(C)C)NC(=O)[C@H](CC(C)C)N(C)C(=O)CN(C)C(=O)[C@H]([C@@H](C)O)NC(=O)[C@H](CC(C)C)N(C)C1=O [pd217] (A[NMeF]L[NMeL]T[Sar][NMeL]S(tBu)[NMeF][NMeF]D-Piperidide; lactam N-11) | 1.1
3 | CC(C)C[C@@H]1NC(=O)[C@H](Cc2ccccc2)N(C)C(=O)[C@H](CC(C)C)N(C)C(=O)[C@@H](C)N(C)C(=O)C[C@@H](C(=O)N2CCCCC2)NC(=O)[C@H](CC(C)C)N(C)C(=O)[C@H](Cc2ccccc2)N(C)C(=O)[C@H]([C@@H](C)O)NC(=O)[C@H](Cc2ccccc2)N(C)C1=O [pd223] ([dNMeA][NMeL][NMeF]L[NMeF]T[NMeF][NMeL]D-Piperidide; lactam N-9) | 1.1
4 | CC(C)C[C@H]1NC(=O)C[C@@H](C(=O)N2CCCCC2)NC(=O)[C@H](C)N(C)C(=O)[C@H](CC(C)C)N(C)C(=O)[C@H](COC(C)(C)C)NC(=O)[C@H](CC(C)C)N(C)C(=O)CN(C)C(=O)[C@H]([C@@H](C)O)NC(=O)[C@H](CC(C)C)N(C)C(=O)[C@H](Cc2ccc(O)c(F)c2)NC(=O)[C@H](Cc2ccccc2)N(C)C1=O [pd118] ([dL][NMeF][Tyr(3-F)][NMeL]T[Sar][NMeL]S(tBu)[NMeL][NMeA]D-Piperidide; lactam N-11) | 0.2
5 | CCCCN1CC(=O)N(C)[C@@H](CC(C)C)C(=O)N[C@@H](COC(C)(C)C)C(=O)N(C)[C@@H](Cc2ccccc2)C(=O)N(C)[C@@H](CC(C)C)C(=O)N[C@H](C(=O)N2CCCCC2)CC(=O)N[C@H](C(C)C)C(=O)N(C)[C@@H](C(C)C)C(=O)N[C@@H](Cc2ccc(C(=O)N(C)O)cc2)C(=O)N(C)[C@@H](CC(C)C)C(=O)N[C@@H]([C@@H](C)O)C1=O [AP248] ([dV][NMeV][Phe(4-COOH)](N(OH)Me)[NMeL]T[NBuGly][NMeL]S(tBu)[NMeF][NMeL]D-Piperidide; lactam N-11) | 0.24
6 | CC[C@H]1C(=O)N[C@@H](Cc2ccc(O)cc2)C(=O)N(C)[C@@H](CC(C)C)C(=O)N(C)[C@@H](CC(C)C)C(=O)N[C@@H](C(C)C)C(=O)N(C)[C@@H](Cc2ccccc2)C(=O)N(C)[C@@H](CC(C)C)C(=O)N[C@@H]([C@@H](C)O)C(=O)N(C)CC(=O)N(C)[C@@H](CC(C)C)C(=O)N[C@H](C(=O)N2CCCCC2)CC(=O)N1C [Compound F06] ([NMeAbu]Y[NMeL][NMeL]V[NMeF][NMeL]T[Sar][NMeL]D-Piperidide; lactam N-11) | 0.23
7 | CC[C@H](C)[C@H]1C(=O)N[C@@H]([C@@H](C)O)C(=O)N(C)CC(=O)N(C)[C@@H](CC)C(=O)N[C@H](C(=O)N2CCCCC2)CC(=O)N(C)[C@@H](CC(C)C)C(=O)N[C@@H](Cc2ccc(OC)c(C(=O)NC)c2)C(=O)N(C)[C@@H](CC(C)C)C(=O)N(C)[C@@H](Cc2ccccc2)C(=O)N[C@@H](CC(C)C)C(=O)N(C)[C@@H](CC(C)C)C(=O)N1C [AP39] ([NMeL][Phe(3-CONHMe,4-OMe)][NMeL][NMeF]L[NMeL][NMeI]T[Sar][NMeAbu]D-Piperidide; lactam N-11) | 0.01

same assay, conditions: human, Caco-2, Caco-2 (cm/sec) Papp

Row | Compound | Papp [×10⁻⁶ cm/s]
8 | CC(C)C[C@@H]1NC(=O)[C@H](Cc2ccccc2)N(C)C(=O)[C@H](CC(C)C)N(C)C(=O)[C@H](Cc2ccccc2)NC(=O)[C@H](C)NC(=O)C[C@@H](C(=O)N2CCCCC2)NC(=O)[C@H](Cc2ccccc2)N(C)C(=O)CN(C)C(=O)[C@H](Cc2ccccc2)NC(=O)[C@H](CC(C)C)N(C)C(=O)[C@H]([C@@H](C)O)NC1=O [pd244] (AF[NMeL][NMeF]LT[NMeL]F[Sar][NMeF]D-Piperidide; lactam N-11) | 0.045

same assay, conditions: human, Caco-2, Caco-2 (membrane permeability)

Row | Compound | Papp [×10⁻⁶ cm/s]
9 | CC[C@H](C)[C@@H]1NC(=O)[C@H](CC(C)C)N(C)C(=O)CCCN(C)C(=O)C[C@@H](C(=O)N2CCCCC2)NC(=O)[C@H](CC(C)C)N(C)C(=O)[C@H](CC(C)C)N(C)C(=O)[C@H]([C@@H](C)O)NC(=O)[C@H](CC(C)C)N(C)C(=O)[C@H](CCCC(O)C(F)(F)F)NC(=O)[C@H](Cc2ccccc2)N(C)C(=O)[C@H](Cc2ccccc2)N(C)C1=O (stereo partly drawn) [Compound D03] ([NMeGABA][NMeL]I[NMeF][NMeF][X12][NMeL]T[NMeL][NMeL]D-Piperidide; lactam N-11) | 0.33
10 | CCCCN1CC(=O)N(C)[C@@H](CC(C)C)C(=O)N[C@H](C(=O)N2CCCCC2)CC(=O)N(C)[C@@H](C)C(=O)N[C@@H](COCC(O)C(F)(F)F)C(=O)N(C)[C@@H](CC(C)C)C(=O)N(C)[C@@H](Cc2ccccc2)C(=O)N[C@@H](CC(C)C)C(=O)N(C)[C@@H](Cc2ccccc2)C(=O)N(C)[C@@H]([C@@H](C)CC)C(=O)N[C@@H]([C@@H](C)O)C1=O (stereo partly drawn) [Compound C04] ([NMeA]S(CH2CH(OH)CF3)[NMeL][NMeF]L[NMeF][NMeI]T[NBuGly][NMeL]D-Piperidide; lactam N-11) | 0.29
